From patent publication US12642797B2, “Coated granule, solid dispersion, and preparation containing vortioxetine hydrobromide for oral taste masking” (Seasons Biotechnology (Taizhou) Co., Ltd., priority 2019, dated 2026)
Where a name gives a salt, the structure may show the parent alone.

How the values were obtained:
oral cavity and tongue = experiment: Taste and irritation test by subjects (self-made sample vs reference sample); assay type: in vivo, human
Protocol: In the examples, the taste masking effects of test samples were evaluated by the subject's perception of the bitterness and irritation of the oral cavity and tongue. The Taste and Irritation Classification Tested by the Subjects: [table]

[1] = Solubility in sodium acetate medium pH 6.8 simulating the oral environment (USP method); assay type: physicochemical; details: sodium acetate medium, pH 6.8, aqueous buffer, sodium acetate medium pH 6.8, USP method; read-out: Solubility
tongue = experiment: Comparative Example 2: comparison of taste of solid dispersion, hemihydrobromide powder and marketed drug product (20 subjects); assay type: in vivo, human; details: equivalent to 10 mg vortioxetine
Protocol: The solid dispersion equivalent to 10 mg vortioxetine prepared in Example 9b, vortioxetine hemihydrobromide powder equivalent to 10 mg vortioxetine, and the powder compressed by vortioxetine hydrobromide marketed drug product equivalent to 10 mg of vortioxetine hydrobromide passed through 100 mesh sieve, then they were put directly in front of the upper part of the tongue for one minute. There were 20 subjects in each powder group. After trying one powder taste, rinsed your mouth, and try another powder after there was no irritation. After trying the taste, record the bitterness level and tongue irritation, spit it out a few seconds later, rinse your mouth, record the time for the irritation to subside, eat 1-1.5 hours later, and record the irritation again.

[2] = average of 5 subjects, powder equivalent to 20 mg of vortioxetine

## Cc1ccc(Sc2ccccc2N2CCNCC2)c(C)c1 [vortioxetine hydrobromide, 1-[2-(2,4-dimethyl-phenylsulfanyl)-phenyl]piperazine hydrobromide]
Oral cavity and tongue; Subject 1, 0-1 minute, powder equivalent to 20 mg of vortioxetine tasted, listed as Reference sample (2b), hydrobromide
  Instantaneous irritation: +++ (+ + + Strong irritation, intolerable)
Oral cavity and tongue; Subject 1, powder equivalent to 20 mg of vortioxetine tasted, listed as Reference sample (2b), hydrobromide
  Delayed irritation: >30 min
Oral cavity and tongue; Subject 1, powder equivalent to 20 mg of vortioxetine tasted, listed as Reference sample (4b), hydrobromide
  Delayed irritation: >30 min
Oral cavity and tongue; Subject 1, powder equivalent to 20 mg of vortioxetine tasted, listed as Reference sample (4c), hydrobromide
  Delayed irritation: >30 min
Oral cavity and tongue; Subject 1, powder equivalent to 20 mg of vortioxetine tasted, listed as Reference sample (7b), hydrobromide
  Delayed irritation: >30 min
Oral cavity and tongue; Subject 2, 0-1 minute, powder equivalent to 20 mg of vortioxetine tasted, listed as Reference sample (2b), hydrobromide
  Instantaneous irritation: ++ (+ + Irritating, tolerable)
Oral cavity and tongue; Subject 2, powder equivalent to 20 mg of vortioxetine tasted, listed as Reference sample (2b), hydrobromide
  Delayed irritation: >30 min
Oral cavity and tongue; Subject 2, powder equivalent to 20 mg of vortioxetine tasted, listed as Reference sample (4b), hydrobromide
  Delayed irritation: >30 min
Oral cavity and tongue; Subject 2, powder equivalent to 20 mg of vortioxetine tasted, listed as Reference sample (4c), hydrobromide
  Delayed irritation: >30 min
Oral cavity and tongue; Subject 2, powder equivalent to 20 mg of vortioxetine tasted, listed as Reference sample (7b), hydrobromide
  Delayed irritation: >30 min
Oral cavity and tongue; Subject 3, 0-1 minute, powder equivalent to 20 mg of vortioxetine tasted, listed as Reference sample (2b), hydrobromide
  Instantaneous irritation: +++ (+ + + Strong irritation, intolerable)
Oral cavity and tongue; Subject 3, powder equivalent to 20 mg of vortioxetine tasted, listed as Reference sample (2b), hydrobromide
  Delayed irritation: >30 min
Oral cavity and tongue; Subject 3, powder equivalent to 20 mg of vortioxetine tasted, listed as Reference sample (4b), hydrobromide
  Delayed irritation: >30 min
Oral cavity and tongue; Subject 3, powder equivalent to 20 mg of vortioxetine tasted, listed as Reference sample (4c), hydrobromide
  Delayed irritation: >30 min
Oral cavity and tongue; Subject 3, powder equivalent to 20 mg of vortioxetine tasted, listed as Reference sample (7b), hydrobromide
  Delayed irritation: >30 min
Oral cavity and tongue; Subject 4, 0-1 minute, powder equivalent to 20 mg of vortioxetine tasted, listed as Reference sample (2b), hydrobromide
  Instantaneous irritation: ++ (+ + Irritating, tolerable)
Oral cavity and tongue; Subject 4, 0-1 minute, powder equivalent to 20 mg of vortioxetine tasted, listed as Reference sample (4b), hydrobromide
  Instantaneous irritation: +++ (+ + + Strong irritation, intolerable)
Oral cavity and tongue; Subject 4, powder equivalent to 20 mg of vortioxetine tasted, listed as Reference sample (2b), hydrobromide
  Delayed irritation: >30 min
Oral cavity and tongue; Subject 4, powder equivalent to 20 mg of vortioxetine tasted, listed as Reference sample (4b), hydrobromide
  Delayed irritation: >30 min
Oral cavity and tongue; Subject 4, powder equivalent to 20 mg of vortioxetine tasted, listed as Reference sample (4c), hydrobromide
  Delayed irritation: >30 min
Oral cavity and tongue; Subject 4, powder equivalent to 20 mg of vortioxetine tasted, listed as Reference sample (7b), hydrobromide
  Delayed irritation: >30 min
Oral cavity and tongue; Subject 5, 0-1 minute, powder equivalent to 20 mg of vortioxetine tasted, listed as Reference sample (2b), hydrobromide
  Instantaneous irritation: +++ (+ + + Strong irritation, intolerable)
Oral cavity and tongue; Subject 5, 0-1 minute, powder equivalent to 20 mg of vortioxetine tasted, listed as Reference sample (4b), hydrobromide
  Instantaneous irritation: +++ (+ + + Strong irritation, intolerable)
Oral cavity and tongue; Subject 5, powder equivalent to 20 mg of vortioxetine tasted, listed as Reference sample (2b), hydrobromide
  Delayed irritation: >30 min
Oral cavity and tongue; Subject 5, powder equivalent to 20 mg of vortioxetine tasted, listed as Reference sample (4b), hydrobromide
  Delayed irritation: >30 min
Oral cavity and tongue; Subject 5, powder equivalent to 20 mg of vortioxetine tasted, listed as Reference sample (4c), hydrobromide
  Delayed irritation: >30 min
Oral cavity and tongue; Subject 5, powder equivalent to 20 mg of vortioxetine tasted, listed as Reference sample (7b), hydrobromide
  Delayed irritation: >30 min
Oral cavity and tongue; average of 5 subjects, powder equivalent to 20 mg of vortioxetine, listed as Reference sample (2b), hydrobromide
  Instantaneous irritation: +++ (+ + + Strong irritation, intolerable)
Oral cavity and tongue; average of 5 subjects, powder equivalent to 20 mg of vortioxetine, listed as Reference sample (4b), hydrobromide
  Instantaneous irritation: +++ (+ + + Strong irritation, intolerable)
Oral cavity and tongue; average of 5 subjects, powder equivalent to 20 mg of vortioxetine, listed as Reference sample (4c), hydrobromide
  Instantaneous irritation: +++ (+ + + Strong irritation, intolerable)
Oral cavity and tongue; average of 5 subjects, powder equivalent to 20 mg of vortioxetine, listed as Reference sample (7b), hydrobromide
  Instantaneous irritation: +++ (+ + + Strong irritation, intolerable)
Oral cavity and tongue; average of 5 subjects, powder equivalent to 20 mg of vortioxetine, listed as Reference sample (9b), hydrobromide
  Instantaneous irritation: +++ (+ + + Strong irritation, intolerable)
Oral cavity and tongue; average of 5 subjects, powder equivalent to 20 mg of vortioxetine, listed as Reference sample (10), hydrobromide
  Instantaneous irritation: ++ (+ + Irritating, tolerable)
Oral cavity and tongue; average of 5 subjects, powder equivalent to 20 mg of vortioxetine, listed as Reference sample (11b), hydrobromide
  Instantaneous irritation: +++ (+ + + Strong irritation, intolerable)
Oral cavity and tongue; average of 5 subjects, powder equivalent to 20 mg of vortioxetine, listed as Reference sample (11c), hydrobromide
  Instantaneous irritation: +++ (+ + + Strong irritation, intolerable)
Oral cavity and tongue; average of 5 subjects, powder equivalent to 20 mg of vortioxetine, listed as Reference sample (14b), hydrobromide
  Instantaneous irritation: +++ (+ + + Strong irritation, intolerable)
[1]
  solubility: 150 µg/mL

## Br.Cc1ccc(Sc2ccccc2N2CCNCC2)c(C)c1.Cc1ccc(Sc2ccccc2N2CCNCC2)c(C)c1 [vortioxetine hemihydrobromide]
Oral cavity and tongue; [2]
  Delayed irritation, time to disappear: more than 30 minutes
  Instantaneous irritation: ++ (+ + Irritating, tolerable)

## Br.Cc1ccc(Sc2ccccc2N2CCNCC2)c(C)c1 [Reference sample (1b), vortioxetine hydrobromide form α]
Oral cavity and tongue; Subject 1, 0-1 minute, powder equivalent to 20 mg of vortioxetine tasted
  Instantaneous irritation: +++ (+ + + Strong irritation, intolerable)
Oral cavity and tongue; Subject 1, powder equivalent to 20 mg of vortioxetine tasted
  Delayed irritation: >30 min
Oral cavity and tongue; Subject 2, 0-1 minute, powder equivalent to 20 mg of vortioxetine tasted
  Instantaneous irritation: +++ (+ + + Strong irritation, intolerable)
Oral cavity and tongue; Subject 2, powder equivalent to 20 mg of vortioxetine tasted
  Delayed irritation: >30 min
Oral cavity and tongue; Subject 3, 0-1 minute, powder equivalent to 20 mg of vortioxetine tasted
  Instantaneous irritation: +++ (+ + + Strong irritation, intolerable)
Oral cavity and tongue; Subject 3, powder equivalent to 20 mg of vortioxetine tasted
  Delayed irritation: >30 min
Oral cavity and tongue; Subject 4, 0-1 minute, powder equivalent to 20 mg of vortioxetine tasted
  Instantaneous irritation: +++ (+ + + Strong irritation, intolerable)
Oral cavity and tongue; Subject 4, powder equivalent to 20 mg of vortioxetine tasted
  Delayed irritation: >30 min
Oral cavity and tongue; Subject 5, 0-1 minute, powder equivalent to 20 mg of vortioxetine tasted
  Instantaneous irritation: +++ (+ + + Strong irritation, intolerable)
Oral cavity and tongue; Subject 5, powder equivalent to 20 mg of vortioxetine tasted
  Delayed irritation: >30 min
Oral cavity and tongue; [2]
  Delayed irritation, time to disappear: more than 30 minutes
  Instantaneous irritation: +++ (+ + + Strong irritation, intolerable)

## Br.Cc1ccc(Sc2ccccc2N2CCNCC2)c(C)c1.Cc1ccc(Sc2ccccc2N2CCNCC2)c(C)c1 [Vortioxetine hemihydrobromide powder]
tongue
  Number of subjects experiencing different irritation: Basically no irritation: 6
tongue; no irritation after gargling
  Number of subjects experiencing different irritation: Slightly irritating, tolerable: 12^(2)
tongue; subside time more than 2 hours, not subsided after eating
  Number of subjects experiencing different irritation: unbearable: 2^(1)
